In test [1] the target is postsynaptic muscarinic cholinergic receptors (bladder detrusor muscle) (Cavia porcellus, UniProt H0W1Z3). Nature of the test: cell-based. On the set-up: species or system guinea pig.
Test [2] has as its system bladder contraction (PvesP). Conditions: guinea pig, in vivo, iv.

Structures can show the parent of a compound that is named as a salt.

postsynaptic muscarinic cholinergic receptors (bladder detrusor muscle), sequence (H0W1Z3 1-590): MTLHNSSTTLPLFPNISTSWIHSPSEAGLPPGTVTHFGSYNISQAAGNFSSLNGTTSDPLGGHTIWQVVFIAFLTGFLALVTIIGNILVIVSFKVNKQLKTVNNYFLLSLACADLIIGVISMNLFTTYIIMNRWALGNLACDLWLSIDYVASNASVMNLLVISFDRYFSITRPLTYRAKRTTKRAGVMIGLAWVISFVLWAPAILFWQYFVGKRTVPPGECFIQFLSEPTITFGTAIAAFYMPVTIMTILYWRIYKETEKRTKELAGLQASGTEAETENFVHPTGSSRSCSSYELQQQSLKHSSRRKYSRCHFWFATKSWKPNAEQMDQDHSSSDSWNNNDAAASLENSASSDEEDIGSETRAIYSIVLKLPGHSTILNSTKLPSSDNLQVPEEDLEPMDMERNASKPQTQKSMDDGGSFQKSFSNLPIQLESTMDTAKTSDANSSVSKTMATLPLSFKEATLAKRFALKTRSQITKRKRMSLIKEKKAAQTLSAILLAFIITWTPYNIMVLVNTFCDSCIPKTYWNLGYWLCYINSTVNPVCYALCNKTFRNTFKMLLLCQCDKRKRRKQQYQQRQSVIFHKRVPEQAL

In test [1], `O=C(CN1CCNCC1)C(O)(c1ccccc1)C1CCC1` (centres unmarked) [1-Cyclobutyl-1-hydroxy-1-phenyl-3-piperazinyl-2-propanone Dihydrochloride] registered a Kb of 86 nM. Same read-out and setting: for `C=CCN1CCN(CC(=O)C(O)(c2ccccc2)C2CCC2)CC1` (centres unmarked) [1-Cyclobutyl-1-hydroxy-3-(4-allyl-1-piperazinyl)-1-phenyl-2-propanone Dihydrochloride] the value was 65 nM. With `O=C(CN1CCN(C(c2ccccc2)c2ccccc2)CC1)C(O)(c1ccccc1)C1CCC1` (centres unmarked) [1-Cyclobutyl-1-hydroxy-3-(4-benzyhydryl-1-piperazinyl)-1-phenyl-2-propanoneDihydrochloride], the Kb result in test [1] was “No Effect at 1 μM”. Consider `O=C(CN1CCN(C2CCC2)CC1)C(O)(c1ccccc1)C1CCC1` (centres unmarked) [1-Cyclobutyl-1-hydroxy-3-(4-cyclobutyl-1-piperazinyl)-1-phenyl-2-propanone Dihydrochloride], for which the Kb in test [1] came to 230 nM. Regarding `CCOC(=O)N1CCN(CC(=O)C(O)(c2ccccc2)C2CCC2)CC1.Cl` (centres unmarked) [1-Cyclobutyl-1-hydroxy-3-(4-ethoxycarbonyl-1-piperazinyl)-1-phenyl-2-propanone Hydrochloride], in test [1], the Kb entry is “No Effect at 1 μM”. `CN1CCN(CC(=O)C(O)(c2ccccc2)C2CCC2)CC1` (centres unmarked) [1-Cyclobutyl-1-hydroxy-3-(4-methyl-1-piperazinyl)-1-phenyl-2-propanone Dihydrochloride] had a Kb in test [1] of 24.9 nM. As to `Cl.Cl.O=C(CN1CCN(c2ccccc2)CC1)C(O)(c1ccccc1)C1CCC1` (centres unmarked) [1-Cyclobutyl-1-hydroxy-3-(4-phenyl-1-piperazinyl)-1-phenyl-2-propanone Dihydrochloride], in test [1], the Kb result is listed as “No Effect at 1 μM”. The molecule `CCCN1CCN(CC(=O)C(O)(c2ccccc2)C2CCC2)CC1` (centres unmarked) [1-Cyclobutyl-1-hydroxy-3-(4-propyl-1-piperazinyl)-1-phenyl-2-propanone Dihydrochloride] yielded a Kb in test [1] of 673 nM. As to `O=C(CN1CCN(CC(=O)C(O)(c2ccccc2)C2CCC2)CC1)N1CCCC1` (centres unmarked) [1-Cyclobutyl-1-hydroxy-3-(4-pyrrolidino-carbonylmethyl-1-piperazinyl)-1-phenyl-2-propanone Dihydrochloride], in test [1], the Kb was found to be 210 nM.

Regarding `CCOc1ccccc1N1CCN(CC(=O)C(O)(c2ccccc2)C2CCC2)CC1.Cl.Cl` (centres unmarked) [1-Cyclobutyl-1-hydroxy-3-[4-(2-ethoxyphenyl)-1-piperazinyl]-1-phenyl-2-propanone Dihydrochloride], the Kb result in test [1] is “No Effect at 1 μM”. Regarding `O=C(CN1CCN(CCO)CC1)C(O)(c1ccccc1)C1CCC1` (centres unmarked) [1-Cyclobutyl-1-hydroxy-3-[4-(2-hydroxyethyl)-1-piperazinyl]-1-phenyl-2-propanone Dihydrochloride], the Kb in test [1] came to 201 nM. `COc1ccccc1N1CCN(CC(=O)C(O)(c2ccccc2)C2CCC2)CC1.Cl.Cl` (centres unmarked) [1-Cyclobutyl-1-hydroxy-3-[4-(2-methoxyphenyl)-1-piperazinyl]-1-phenyl-2-propanone Dihydrochloride]: in test [1], the Kb entry was “No Effect at 1 μM”.

`C=C(C)CN1CCN(CC(=O)C(O)(c2ccccc2)C2CCC2)CC1` (centres unmarked) [1-Cyclobutyl-1-hydroxy-3-[4-(2-methyl-2-propenyl)-1-piperazinyl]1-phenyl-2-propanone Dihydrochloride] displayed a Kb in test [1] of 100 nM. On the same count and under the same terms, for `C=CCCN1CCN(CC(=O)C(O)(c2ccccc2)C2CCC2)CC1` (centres unmarked) [1-Cyclobutyl-1-hydroxy-3-[4-(3-butenyl)-1-piperazinyl]-1-phenyl-2-propanoneDihydrochloride] the value was 35 nM; for `CC(C)=CCN1CCN(CC(=O)C(O)(c2ccccc2)C2CCC2)CC1` (centres unmarked) [1-Cyclobutyl-1-hydroxy-3-[4-(3-methyl-2-butenyl)-1-piperazinyl]-1-phenyl-2-propanone Dihydrochloride], 19 nM; for `O=C(CN1CCN(Cc2ccc(Cl)cc2)CC1)C(O)(c1ccccc1)C1CCC1` (centres unmarked) [1-Cyclobutyl-1-hydroxy-3-[4-(4-chlorobenzyl)-]1-piperazinyl]-1-phenyl-2-propanone Dihydrochloride], 16 nM. In test [1], `Cc1ccc(CN2CCN(CC(=O)C(O)(c3ccccc3)C3CCC3)CC2)cc1` (centres unmarked) [1-Cyclobutyl-1-hydroxy-3-[4-(4-methylbenzyl)-]1-piperazinyl]-1-phenyl-2-propanone Dihydrochloride] displayed a Kb of 9.1 nM. `O=C(CN1CCN(Cc2ccc([N+](=O)[O-])cc2)CC1)C(O)(c1ccccc1)C1CCC1` (centres unmarked) [1-Cyclobutyl-1-hydroxy-3-[4-(4-nitrobenzyl)-1-piperazinyl]-1-phenyl-2-propanone Dihydrochloride] showed a Kb in test [1] of 83 nM. The same measure, in the same setting: for `Cl.Cl.O=C(CN1CCN(c2ccc([N+](=O)[O-])cc2)CC1)C(O)(c1ccccc1)C1CCC1` (centres unmarked) [1-Cyclobutyl-1-hydroxy-3-[4-(4-nitrophenyl)-1-piperazinyl]-1-phenyl-2-propanone Dihydrochloride] the value was “No Effect at 1 μM”; for `C=CCN1CCN(CC(=O)C(O)(c2ccccc2)C2CCCCC2)CC1` (centres unmarked) [1-Cyclohexyl-1-hydroxy-3-(4-allyl-1-piperazinyl)-1-phenyl-2-propanone Dihydrochloride], 26 nM. As to `CN1CCN(CC(=O)C(O)(c2ccccc2)C2CCCCC2)CC1` (centres unmarked) [1-Cyclohexyl-1-hydroxy-3-(4-methyl-1-piperazinyl)-1-phenyl-2-propanone], the “T1/2 for recovery toward control level of the PvesP contraction strength parameter” value in test [2] was 216 ± 18 min. The same molecule registered a Kb in test [1] of 25.9 ± 5.3 nM. On to `O=C(CN1CCN(CCO)CC1)C(O)(c1ccccc1)C1CCCCC1` (centres unmarked) [1-Cyclohexyl-1-hydroxy-3-[4-(2-hydroxyethyl)-1-piperazinyl]-1-phenyl-2-propanone Dihydrochloride], for which the Kb in test [1] was found to be 96 nM.
